# Source: paper PMC3578829, “A Small Molecule (Pluripotin) as a Tool for Studying Cancer Stem Cell Biology: Proof of Concept” (PLoS ONE, 2013)
# “Also recorded” adds a separate entry of the source.
# Assays:
# COLO 205 = assay: Soft agar cloning assay; assay type: cell-based; settings: 1.25 µM SL0101 for 24 hrs prior to cloning, evaluated 7 days later, all plating densities
# Procedure: The soft agar colony formation assay has been previously described. In brief, for each treatment condition, triplicate 35 mm^2 dishes were coated with a 1 ml base layer containing 0.7% agarose (Seaplaque: FMC Corp., Rockland, ME). On day 0, cells were dissociated, washed once in growth medium, and subcultured by layering various cell concentrations in 0.5 ml culture medium containing 0.3% agarose onto the base coat. Culture dishes were transferred to a refrigerator (4°C) for 15 min, to room temperature for 10 min, and then to culture incubators. An upper layer of 0.5 ml culture medium was applied on day 0. Cultures were stained with MTT (1 mg/ml) for visualization and imaging at multiple time intervals (day 7 and 14). Cumulative counts of colonies (diameters, >60 µm) and cumulative volumes of CFU (diameters >120 µm) were determined with an Omnicon FAS-II (Bausch & Lomb, Rochester, NY) following calibration with an Omnicon test plate 3 and polystyrene microspheres embedded in soft agar matrix. The evaluable region of each culture dish (35 contiguous fields equivalent to 51% of the cell layer culture volume) was analyzed. Selective scoring of viable cell groups was achieved by adjustment of the instrument detection threshold to exclude images of nonstained cellular material and debris. The data was analyzed with Lotus Symphony software.
# MEK = settings: cited from earlier work
# Raf = settings: cited from earlier work
# PKC = settings: cited from earlier work
compound,measurement,setting,value
CC(=O)O[C@@H]1[C@@H](OC(C)=O)[C@@H](O)[C@H](Oc2c(-c3ccc(O)cc3)oc3cc(O)cc(O)c3c2=O)O[C@H]1C [SL0101],Colony formation (≥60 µm) in soft agar vs control,COLO 205,increased colony formation; also recorded: Statistically significant increases in colony formation
same,Activity against MEK,MEK,no activity
same,Activity against Raf,Raf,no activity
same,Activity against PKC,PKC,no activity
